Here are results for 16 molecules from US5708063A, “Photochromic compound” (Tokuyama Corporation, priority 1993, dated 1998).

Holding throughout (format): physicochemical
Data set [1] can be described thus: Durability of poly(allyl diglycol carbonate) lens impregnated with the compound in silicone oil, as in Example 9 (Example 10). More on the design: Initial color density: unit not given here. To be noted: silicone oil impregnation; for Initial color density: 1.0×10^-4 mole/g; for T1/2: xenon fadeometer. On the procedure: (§1) T1/2 is defined as the time required for the color density to decrease to half of its initial value when the film is exposed to the fadeometer.
The solution was impregnated in the surface of a lens composed of poly(allyl diglycol carbonate) at 200° C. for 1 hour. The concentration of the solution was adjusted to 1.0×10^-4 mole/g.

Data set [2] can be described thus: Fatigue life of photochromic PMMA cast film with ultraviolet stabilizer, xenon fadeometer (Examples 11-14). On the procedure:
One hundred parts by weight of benzene, 10 parts by weight of poly(methyl methacrylate), 0.2 part […] The solution was cast on a slide glass (11.2×3.7 cm) to form a cast film having a thickness of 0.1 mm.
The fatigue life of photochromic film was measured as in Example 9 by a xenon long-life fadeometer (FAL-25AX-HC made by Suga Testing Instrument Co., Ltd.).
Example 11 was repeated except that the fulgimide compound obtained in Example 2 was used instead of fulgimide compound used in Example 11.
Example 11 was repeated except that the fulgimide or fulgide compounds shown in Table 28 were used instead of the fulgimide compounds in Example 11, and Cyasorb UV1084 was used as the ultraviolet stabilizer.

Data set [3] in a line: Photochromic PMMA cast film: initial coloration density, maximum absorption wavelength and fatigue life in xenon fadeometer (Example 9).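 As to Initial color density: initial color density is an absorbance value so the % unit is wrong.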 The settings on record: PMMA cast film 0.1 mm; for λmax / Initial color density: xenon light; for Initial color density / T1/2: no stabilizer; for T1/2: time for color density to fall to half of initial value, xenon fadeometer.
Excerpt: The thickness of the cast film was adjusted to 0.1 mm.
as §1

Data set [4] is described as follows: Visual color tone of polymerized plate under sunlight (Example 15). The settings on record: 0.05 part, with chromene 3 (0.08 part). As to the method: (§2) […] The mixed solution was injected into a mold which was made of a glass plate and a gasket formed of an ethylene-vinyl acetate copolymer, and was heated to a temperature of 35° to 90° C. in an air oven over a period of 20 hours for polymerization. After the polymerization was over, the polymer was withdrawn from the glass plate of the mold.
(§3) The resulting polymerized plate was irradiated with sunlight for 10 minutes. On this occasion, a color tone of said plate was visually observed. In this polymerized plate, the fulgide or fulgimide compound and the chromene compound were measured for fatigue life in the same manner as in Example 9. Further, a color tone of the polymerized plate was visually observed in T1/2 (hrs.) of the fulgide or fulgimide compound.

The nature of data set [5]: Fatigue life of fulgide/fulgimide and chromene compound in polymerized methacrylate plate (Example 15). To be noted: 0.05 part, with chromene 3 (0.08 part). On the procedure:
as §2, §3

[6] abbreviates: PMMA film, UV stabilizer Chimassorb 944, 0.2 part.
The mark [7] stands for this setting: PMMA film, UV stabilizer Cyasorb 3346, 0.2 part.
[8] abbreviates: PMMA film, UV stabilizer Cyasorb UV1084, 0.2 part.
Where [9] appears, read: PMMA film, UV stabilizer Irgastab 2002, 0.2 part.
Setting [10] is: PMMA film, UV stabilizer Rylex NBC, 0.2 part.
Setting [11] is: PMMA film, UV stabilizer Spinuvex A-36, 0.2 part.
Setting [12] is: PMMA film, UV stabilizer Tinuvin 144, 0.2 part.
[13] abbreviates: PMMA film, UV stabilizer Tinuvin 622, 0.2 part.
Setting [14] is: PMMA film, UV stabilizer Tinuvin 765, 0.2 part.
[15] abbreviates: PMMA film, UV stabilizer UV Chek AM101, 0.2 part.
[16] abbreviates: PMMA film, UV stabilizer UV Chek AM105, 0.2 part.

The structures appear in SMILES notation.

For `N#CCN1C(=O)C2=C(C3CC3)c3ccsc3C3(C4CCC3CC4)C2C1=O` (stereo not shown) [(2), N-cyanomethyl-4-cyclopropyl-6,7-dihydridospirobenzo[5,6-b]thiophenedicarboxyimido-7,7'-bicyclo[2.2.1]heptane], the values for the λmax in data set [1] and in data set [3] were 568 nm and 563 nm, respectively. For the same molecule, the Initial color density in data set [1] is reported as 0.71; in data set [3] it was 0.78%. For the same molecule, the T1/2 in data set [1] is 91 h; in data set [2] (setting [6]) it was 325 h; in data set [2] (setting [7]), 385 h; in data set [2] (setting [8]), 350 h; in data set [2] (PMMA film, UV stabilizer Cyasorb UV1084, 0.2 part, listed as Example 2), 355 h; in data set [2] (setting [9]), 340 h. In addition, the T1/2 came out at 369 h in data set [2] (setting [10]); 346 h in data set [2] (setting [11]); 355 h in data set [2] (setting [12]); 375 h in data set [2] (setting [13]); 373 h in data set [2] (setting [14]); 336 h in data set [2] (setting [15]). Further, the T1/2 in data set [2] (setting [16]) was 308 h; in data set [3] it was 89 h.
On to `CCn1c2c(c3ccccc31)C(C1CC1C(=O)O)=C1C(=O)N(CC(=O)OCCC#N)C(=O)C1C21C2CC3CC(O)(C2)CC1(O)C3` (stereo not shown) [(44)], for which, in data set [4], the “Color tone in T0” value was “gray” and the “Color tone in T1/2” value was “gray”. The “T1/2 of fulgide or fulgimide compound” value in data set [5] was 154 h. In data set [3], this molecule came in with a λmax of 576 nm, an Initial color density of 0.75% and a T1/2 of 62 h.
`CCn1c2c(c3ccccc31)C(C1CC1)=C1C(=O)OC(=O)C1C21C2CC3CC1CC(C)(C3)C2` (stereo not shown) [(57)]: in data set [2] (setting [8]), the T1/2 came out at 220 h. In data set [3], this molecule displayed a λmax of 559 nm, an Initial color density of 1.21% and a T1/2 of 55 h.
Regarding `O=C1OC(=O)C2C1=C(C1CC1)c1c(sc3ccccc13)C21C2CCC1CC2` (stereo not shown) [(49)], in data set [2] (setting [8]), the T1/2 was 235 h. Further, in data set [3], the λmax amounted to 564 nm, the Initial color density was found to be 1.15% and the T1/2 was determined as 58 h.
In data set [1], `Cc1cc2c(n1C)C1(C3CC4CC(F)(C3)CC1(F)C4)C1C(=O)N(C3CCC([N+](=O)[O-])CC3)C(=O)C1=C2C1CC1` (stereo not shown) [(40)] showed a λmax of 535 nm, an Initial color density of 0.70 and a T1/2 of 74 h. The molecule also showed a T1/2 in data set [2] (setting [8]) of 280 h. In addition, in data set [3], the λmax is given as 532 nm, the Initial color density amounted to 0.77% and the T1/2 turned out to be 71 h.
In turn, `CCC(C(=O)OCCc1ccc2ccccc2c1)N1C(=O)C2=C(C3CC3)c3ccsc3C3(C4CC5CC(C4)CC3C5)C2C1=O` (stereo not shown) [(5)] displayed a T1/2 in data set [2] (setting [8]) of 244 h. In data set [3], the λmax stood at 532 nm, the Initial color density amounted to 0.69% and the T1/2 came out at 61 h.
In data set [1], `O=C1C2=C(C3CC3)c3cc(Br)sc3C3(C4CCCC3CCC4)C2C(=O)N1CCc1ccc2ccccc2c1` (stereo not drawn) [(3), 2-bromo-4-cyclopropyl-6,7-dihydrido-N-(β-naphtylethyl)spirobenzo[5,6-b]thiophenedicarboxyimido-7'9'-bicyclo[3.3.1]nonane] yielded a λmax of 550 nm, an Initial color density of 0.81 and a T1/2 of 49 h. In data set [3], this molecule gave a λmax of 545 nm, an Initial color density of 0.88% and a T1/2 of 45 h.
Molecule `O=C(CCCCN1C(=O)C2=C(C3CC3)c3ccsc3C3(C4CC5CC(C4)CC3C5)C2C1=O)OCCc1ccc2ccccc2c1` (stereo not shown) [(6)] registered a T1/2 in data set [2] (setting [8]) of 210 h. In data set [3], this molecule displayed a λmax of 549 nm, an Initial color density of 0.72% and a T1/2 of 57 h.
Regarding `CCOC(=O)OCN1C(=O)C2=C(C3C(c4ccccc4)C3c3ccccc3)c3cc(-c4ccc(OC)cc4)sc3C3(C4CCCC3CCC4)C2C1=O` (stereo not shown) [(31)], in data set [1], the λmax was 616 nm, the Initial color density is 0.69 and the T1/2 is 86 h. In data set [3], this molecule had a λmax of 624 nm, an Initial color density of 0.77% and a T1/2 of 81 h.
As for `N#CCN1C(=O)C2=C(C3CC3Oc3ccccc3)c3ccoc3C3(C4CCC3CC4)C2C1=O` (stereo not shown) [(22)], in data set [1], the λmax was 559 nm, the Initial color density is reported as 0.70 and the T1/2 is 93 h. Moreover, in data set [3], the λmax stood at 554 nm, the Initial color density stood at 0.81% and the T1/2 was 88 h.
With `O=C1OC(=O)C2C1=C(C1CC1C(F)(F)F)c1sc(Br)cc1C21C2CCC1CC2` (stereo not shown) [(50)], in data set [2] (setting [8]), the T1/2 is 200 h. In data set [3], this molecule displayed a λmax of 518 nm, an Initial color density of 0.90% and a T1/2 of 48 h.
In data set [2] (setting [8]), `O=C1OC(=O)C2C1=C(C1CC1)c1cc(Br)sc1C21C2CC3CC(C2)CC1C3` (stereo not shown) [(7), 2-bromo-4-cyclopropyl-6,7-dihydridospirobenzo[5,6-b]thiophenedicarboxyanhydride-7,2'-tricyclo[3.1.1^3.7]decane] showed a T1/2 of 220 h. In data set [3], this molecule returned a λmax of 529 nm, an Initial color density of 1.21% and a T1/2 of 54 h.
The like results for `O=C1OC(=O)C2C1=C(C1CC1)c1cc([N+](=O)[O-])sc1C21C2CC3CC(C2)CC1C3` (stereo not shown) [(59)] were, in that order, 228 h, 524 nm, 1.21% and 57 h.
For `CCOc1cc2c(s1)C1(C3CCCC1CCC3)C1C(=O)OC(=O)C1=C2C1CC1` (stereo not shown) [(55)], in data set [1], the λmax is given as 550 nm, the Initial color density is reported as 1.13 and the T1/2 is 61 h. Besides, in data set [3], the λmax is given as 545 nm, the Initial color density turned out to be 1.25% and the T1/2 was determined as 58 h.
As for `COC(=O)CN1C(=O)C2=C(C3CC3)c3ccsc3C3(C4CCC3CC4)C2C1=O` (stereo not shown) [(1), 4-cyclopropyl-6,7-dihydrdo-N-methoxycarbonylmethylspirobenzo[5,6-b]thiophenedicarboxyimido-7,7'-bicyclo[2.2.1]heptane], the λmax is listed as 554 nm in data set [1] and 549 nm in data set [3]. Besides, the Initial color density is listed as 0.78 in data set [1] and 0.85% in data set [3]. The T1/2 in data set [1] was 82 h; in data set [2] (Cyasorb UV1084, amount added 0.002, 1 part per 100 parts fulgimide) it was 220 h; in data set [2] (Cyasorb UV1084, amount added 0.1, 50 parts per 100 parts fulgimide), 293 h; in data set [2] (Cyasorb UV1084, amount added 0.8, 400 parts per 100 parts fulgimide) it was 330 h; in data set [2] (Cyasorb UV1084, amount added 20, 10000 parts per 100 parts fulgimide) it was 367 h; in data set [2] (setting [6]), 283 h. In addition, the T1/2 is 336 h in data set [2] (setting [7]); 310 h in data set [2] (setting [8]); 299 h in data set [2] (setting [9]); 323 h in data set [2] (setting [10]); 302 h in data set [2] (setting [11]); 310 h in data set [2] (setting [12]). The T1/2 is 327 h in data set [2] (setting [13]); 325 h in data set [2] (setting [14]); 295 h in data set [2] (setting [15]); 272 h in data set [2] (setting [16]); 213 h in data set [2] (Tinuvin 765, amount added 0.002, 1 part per 100 parts fulgimide); 307 h in data set [2] (Tinuvin 765, amount added 0.1, 50 parts per 100 parts fulgimide). Moreover, the T1/2 in data set [2] (Tinuvin 765, amount added 0.8, 400 parts per 100 parts fulgimide) is 340 h; in data set [2] (Tinuvin 765, amount added 20, 10000 parts per 100 parts fulgimide), 375 h; in data set [3], 77 h.
In the case of `CCOC(=O)OCN1C(=O)C2=C(C3CC3c3ccccc3)c3cc(OCC)sc3C3(C4CC5CC(C)(C4)CC3(C)C5)C2C1=O` (stereo not shown) [(41)], in data set [2] (setting [8]), the T1/2 came to 263 h. In data set [3], this molecule showed a λmax of 557 nm, an Initial color density of 0.82% and a T1/2 of 65 h.
